Measurements from patent US5051519A, “Novel antiviral and antitumor terpene hydroquinones and methods of use” (Harbor Branch Oceanographic Institution, Inc., priority 1990, dated 1991).
pIC50: −log10 of the molar value. Converted amounts (≈) assume the structure as drawn.

Legend:
[1] = system: influenza virus type A strain PR8; assay: Antiviral assay: cytopathic effect (CPE) reduction, influenza virus type A strain PR8 in MDCK cells, neutral red dye uptake; format: cell-based, Influenza A strain A/PR/8/34 (HINI)
MDCK cells = assay: Growth inhibition (cytotoxicity) of MDCK cells in the PR-8 antiviral assay, neutral red; format: cell-based, canine (Canis familiaris); conditions: Canis lupus familiaris, 50% growth inhibition; for pIC50: molar restatement of μg per 200 μl value; for IC50: 72 h, read on day 3
[2] = system: P388 murine leukemia cells; assay: Antiproliferative effect against murine P388 leukemia cells, MTT; format: cell-based; conditions: Mus musculus, 48 hour exposure
Procedure: The crude ethanolic extract and pure compound was tested for toxicity against murine P388 leukemia cells. P388 cells obtained from J. Mayo, National Cancer Institute, Bethesda, Md., were maintained in Roswell Park Memorial Institute medium 1640 (RPMI-1640) supplemented with 10% horse serum. All cell lines were cultured in plastic tissue culture flasks and kept in an incubator at 37° C. in humidified air containing 5% CO2. Antibiotic-free stock cultures of P388 cells were subcultured to 10^5 cells/ml by dilution in fresh growth medium at 2-3 day intervals. The mean generation time of primary cultures was 14-17 hours.
To assess the antiproliferative effects of agents against P388 cells, 200 μl cultures (96-well tissue culture plates, Nunc, Denmark) were established at 1×10^6 cells/ml in drug-free medium or medium containing the crude extract at a final dilution of 1:500 of compound 1 or 2 at various concentrations. Solvent for all dilutions was methanol, which was removed from plates under vacuum. All experimental cultures were initiated in medium containing Gentamicin sulfate ([…]; Schering Corporation, Kenilworth, N.J.). After 48 hour exposures, P388 cells were enumerated using 3-[4,5-dimethylthiazol-2-yl]-2,5-diphenyltetrazolium bromide (MTT) as described below (Alley, M. C. et al. [1988] Cancer Res. 48:589).
To quantitate the effects on cell proliferation, 75 μl of warm growth medium containing 5 mg/ml MTT was added to each well and cultures were returned to the incubator for 90 minutes. To spectrophotometrically quantitate formation of reduced formazan, plates were centrifuged (900 xg, 5 minutes), culture fluids removed by aspiration, and 200 μl of acidified isopropanol (2 ml concentrated HCl/liter isopropanol) added per well. The absorbance of the resulting solutions were measured at 570 nm with a plate reader (MR700 Microplate Reader, Dynatech Laboratories, Chantilly, Va.). […] A linear relationship between P388 cell number and formazan production was found over the range of cell densities observed in these experiments.

Row | SMILES | in vitro therapeutic index (TI) ([1]; dog, mdck) | pIC50 (MDCK cells) | IC50 (MDCK cells) | IC50 [2] | activity against influenza virus type A strain PR-8 (in words) [1] | in vitro therapeutic index (TI) ([1]; ratio of IC50/EC50)
1 | COc1ccc(O)c2c1CC1(C)C(C)CCC3C(C)(C)CCCC31O2 (stereo not shown) [Compound 1] | 9 | 4.72 | 6.5 µg/mL | 13 µg/mL (≈ 37.7 µM) |  | 
2 | COc1ccc(OC(C)=O)c2c1CC1(C)C(C)CCC3C(C)(C)CCCC31O2 (stereo not shown) [Compound 2] | 100 | 4.82 | 5 µg/mL | 23.8 µg/mL (≈ 61.6 µM) |  | 
3 | C[C@H]1CC[C@H]2C(C)(C)CCC[C@]23Oc2ccc(O)cc2C[C@]13C [aureol, reference compound] |  | 4.94 | 3.65 µg/mL | 9 µg/mL (≈ 28.6 µM) | strong antiviral activity | 116
